For 13 compounds, TGI results are on record in PubChem BioAssay (NCI).

Each structure is given as a SMILES string.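 A five-concentration, 48-hour dose response in 96-well plates underlies each endpoint, interpolated linearly between surrounding concentrations. TGI denotes the concentration required for complete inhibition of growth.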

Test systems include OVCAR-4 ovarian; NCI-H23 lung; 786-0 renal; SK-MEL-5 melanoma; HOP-92 NSCLC; OVCAR-5 ovarian; UACC-62 melanoma; HCT-15 colon; NCI-H522 lung; SF-295 CNS; RPMI-8226 leukemia; A549 NSCLC; T-47D breast; ACHN renal; SNB-75 CNS; OVCAR-8 ovarian; MALME-3M melanoma; KM12 colon; HS 578T breast.
What all share (test): NCI anticancer screen, dose series, 48 h

`COc1ccc(/C=C2\C(=O)N(C)C(=O)c3cc(OC)c(OC)cc32)cc1OC`: the TGI in the experiment with OVCAR-4 ovarian was > 100 µM; in the experiment with NCI-H23 lung, > 100 µM; in the experiment on 786-0 renal, > 100 µM; with SK-MEL-5 melanoma, 89.8 µM; in the experiment with HOP-92 NSCLC it was 75.5 µM; with OVCAR-5 ovarian, > 100 µM. Also, the TGI is 94 µM with UACC-62 melanoma; > 100 µM in the experiment on HCT-15 colon; 36.4 µM with NCI-H522 lung; 78.7 µM in the experiment with SF-295 CNS; 66.9 µM with RPMI-8226 leukemia; > 100 µM in the experiment with A549 NSCLC. The TGI with T-47D breast and in the experiment with ACHN renal was > 100 µM in each case.
Take `COC(=O)C1=C(C(=O)OC)C(Cc2ccccc2)(OO)OC1=O` (stereo not drawn): the TGI in the experiment on OVCAR-4 ovarian is 52.3 µM; with NCI-H23 lung, 44.4 µM; in the experiment on 786-0 renal it was > 100 µM; with SNB-75 CNS, 49.6 µM; with OVCAR-8 ovarian, > 100 µM; with SK-MEL-5 melanoma, > 100 µM. Besides, the TGI in the experiment with HOP-92 NSCLC was found to be 42.4 µM; with OVCAR-5 ovarian it was 54.2 µM; with MALME-3M melanoma, 24.5 µM; with UACC-62 melanoma it was 15.5 µM; in the experiment with HCT-15 colon, 16 µM; with KM12 colon it was 39.1 µM. The TGI is 6.71 µM with NCI-H522 lung; > 100 µM with SF-295 CNS; > 100 µM in the experiment on A549 NSCLC; > 100 µM in the experiment on T-47D breast; 9.36 µM in the experiment on ACHN renal.
For the compound `O=C1CCCC2C(O)CCC[C@H]12` (stereo partly drawn), the TGI in the experiment with OVCAR-4 ovarian, in the experiment on NCI-H23 lung, in the experiment on 786-0 renal, in the experiment on SNB-75 CNS, with OVCAR-8 ovarian and in the experiment with SK-MEL-5 melanoma was > 100 µM each time. Besides, the TGI in the experiment with OVCAR-5 ovarian, in the experiment with HS 578T breast, with MALME-3M melanoma, with UACC-62 melanoma, with HCT-15 colon and in the experiment on KM12 colon was > 100 µM each time. Besides, the TGI with NCI-H522 lung, with SF-295 CNS, in the experiment with A549 NSCLC, with T-47D breast and with ACHN renal was > 100 µM in each case.
Take `COc1cc(/C=N/n2c(Cc3ccc(Cl)cc3)n[nH]c2=O)cc(OC)c1OC`: the TGI with OVCAR-4 ovarian, with NCI-H23 lung, in the experiment with 786-0 renal, with SNB-75 CNS, in the experiment with OVCAR-8 ovarian and with OVCAR-5 ovarian was > 100 µM in each case. Moreover, the TGI was 27.2 µM in the experiment with HS 578T breast; > 100 µM with MALME-3M melanoma; > 100 µM with UACC-62 melanoma; > 100 µM in the experiment on HCT-15 colon; > 100 µM in the experiment with KM12 colon; > 100 µM in the experiment with SF-295 CNS. The TGI with A549 NSCLC, in the experiment on T-47D breast and in the experiment with ACHN renal was > 100 µM each time.
Regarding `C=[N+](CNC(=O)CNC(=O)C(Cc1ccc([N+](=O)[O-])cc1)NC(=O)OC(C)(C)C)C(=O)CNC(=O)C(Cc1ccc([N+](=O)[O-])cc1)NC(=O)OC(C)(C)C` (stereo not drawn), the TGI with OVCAR-4 ovarian, with NCI-H23 lung, in the experiment with 786-0 renal, in the experiment on SNB-75 CNS, in the experiment on OVCAR-8 ovarian and in the experiment with SK-MEL-5 melanoma was > 100 µM in each case. The TGI with HOP-92 NSCLC was > 100 µM; in the experiment on OVCAR-5 ovarian, > 100 µM; in the experiment on HS 578T breast, > 100 µM; in the experiment with MALME-3M melanoma, > 100 µM; with UACC-62 melanoma, 50.1 µM; in the experiment with HCT-15 colon, > 100 µM. In addition, the TGI was > 100 µM with KM12 colon; 79.8 µM in the experiment with NCI-H522 lung; > 100 µM with SF-295 CNS; 50.4 µM in the experiment on RPMI-8226 leukemia; > 100 µM in the experiment with A549 NSCLC; > 100 µM in the experiment on ACHN renal.
On to `N#Cc1c2c(c(Nc3cccc(C(F)(F)F)c3)n3c1nc1ccccc13)CCC2`, for which the TGI with OVCAR-4 ovarian, with NCI-H23 lung, with 786-0 renal, with SNB-75 CNS, in the experiment with OVCAR-8 ovarian and in the experiment with SK-MEL-5 melanoma was > 100 µM throughout. Further, the TGI in the experiment with HOP-92 NSCLC, in the experiment on OVCAR-5 ovarian, with MALME-3M melanoma, with HCT-15 colon, in the experiment on KM12 colon and in the experiment on NCI-H522 lung was > 100 µM in each case. The TGI in the experiment on SF-295 CNS, in the experiment with RPMI-8226 leukemia, in the experiment on T-47D breast and with ACHN renal was > 100 µM in each case.
With `Cc1ccc(Cc2n[nH]c(=O)n2-c2ccccc2)cc1`, the TGI with NCI-H23 lung, in the experiment with 786-0 renal, with SNB-75 CNS, with OVCAR-8 ovarian, with SK-MEL-5 melanoma and with OVCAR-5 ovarian was > 100 µM each time. Also, the TGI in the experiment on MALME-3M melanoma was > 100 µM; in the experiment on UACC-62 melanoma, > 100 µM; in the experiment on HCT-15 colon it was > 100 µM; in the experiment on KM12 colon, > 100 µM; in the experiment on SF-295 CNS, > 100 µM; with RPMI-8226 leukemia it was 76 µM. In addition, the TGI in the experiment on A549 NSCLC is > 100 µM; in the experiment with T-47D breast, 61.8 µM; with ACHN renal, > 100 µM.
For `COCO[C@@H]1C[C@H]2C(=O)N(COC)c3ccccc3C(=O)N2C1`, the TGI in the experiment with OVCAR-4 ovarian, in the experiment on NCI-H23 lung, in the experiment on 786-0 renal, in the experiment with SNB-75 CNS, in the experiment on OVCAR-8 ovarian and in the experiment with SK-MEL-5 melanoma was > 100 µM each time. Also, the TGI in the experiment on OVCAR-5 ovarian, in the experiment with HS 578T breast, in the experiment on MALME-3M melanoma, in the experiment on UACC-62 melanoma, in the experiment on HCT-15 colon and with KM12 colon was > 100 µM throughout. In addition, the TGI with NCI-H522 lung, in the experiment on SF-295 CNS, in the experiment on A549 NSCLC, in the experiment on T-47D breast and in the experiment with ACHN renal was > 100 µM in each case.
Take `C/C(=C\c1ccccc1)C(=O)NCc1ccc(C(=O)NCCC(C)C)cc1`: the TGI was > 100 µM in the experiment on OVCAR-4 ovarian; > 100 µM with NCI-H23 lung; > 100 µM in the experiment with 786-0 renal; 89.4 µM in the experiment on SNB-75 CNS; > 100 µM with OVCAR-8 ovarian; > 100 µM with SK-MEL-5 melanoma. Also, the TGI with HOP-92 NSCLC, with OVCAR-5 ovarian, in the experiment with MALME-3M melanoma, with UACC-62 melanoma, in the experiment with HCT-15 colon and in the experiment with KM12 colon was > 100 µM each time. The TGI in the experiment on NCI-H522 lung, with SF-295 CNS, in the experiment on RPMI-8226 leukemia, with A549 NSCLC, in the experiment with T-47D breast and in the experiment on ACHN renal was > 100 µM in each case.
For the compound `CCOC(=O)[C@]12C(=C(c3ccccc3)O[C@H]3C=CCC[C@H]31)C(=O)C(=O)N2c1ccccc1`, the TGI with OVCAR-4 ovarian, in the experiment with NCI-H23 lung, with 786-0 renal, in the experiment on OVCAR-8 ovarian, with SK-MEL-5 melanoma and in the experiment with OVCAR-5 ovarian was > 100 µM in each case. Moreover, the TGI in the experiment on MALME-3M melanoma, in the experiment with UACC-62 melanoma, with HCT-15 colon, in the experiment with KM12 colon, in the experiment with NCI-H522 lung and in the experiment with SF-295 CNS was > 100 µM each time. In addition, the TGI in the experiment on RPMI-8226 leukemia was 51.6 µM; in the experiment with A549 NSCLC, > 100 µM; in the experiment on T-47D breast, > 100 µM; with ACHN renal, > 100 µM.
As for `CC(C)(C)n1c(=O)[nH]n(C2NN=Cc3cccc4cccc2c34)c1=O` (stereo not drawn), the TGI with OVCAR-4 ovarian is > 100 µM; in the experiment with NCI-H23 lung, > 100 µM; in the experiment with 786-0 renal it was > 100 µM; with SNB-75 CNS it was 85.6 µM; in the experiment with OVCAR-8 ovarian it was > 100 µM; in the experiment with OVCAR-5 ovarian, > 100 µM. The TGI with HS 578T breast is > 100 µM; in the experiment on MALME-3M melanoma it was > 100 µM; with UACC-62 melanoma, > 100 µM; in the experiment on HCT-15 colon, > 100 µM; in the experiment on KM12 colon, > 100 µM; in the experiment with RPMI-8226 leukemia it was 74.6 µM. Further, the TGI was 63.4 µM in the experiment on A549 NSCLC and > 100 µM in the experiment on T-47D breast.
Turning to `CC(=O)Nc1ccc(N=C2C(c3ccccc3)=C(SC3=C(c4ccccc4)C(=Nc4ccc(NC(C)=O)cc4)c4ccccc43)c3ccccc32)cc1`, the TGI with OVCAR-4 ovarian is > 100 µM; in the experiment on NCI-H23 lung it was 99.8 µM; in the experiment with 786-0 renal it was > 100 µM; in the experiment with SNB-75 CNS, > 100 µM; in the experiment on OVCAR-8 ovarian, > 100 µM; with SK-MEL-5 melanoma it was 31.3 µM. For the same compound, the TGI with HOP-92 NSCLC was > 100 µM; in the experiment on OVCAR-5 ovarian it was > 100 µM; in the experiment with MALME-3M melanoma, > 100 µM; in the experiment with HCT-15 colon it was > 100 µM; in the experiment with KM12 colon, 89.5 µM; with NCI-H522 lung it was 97.7 µM. In addition, the TGI in the experiment with SF-295 CNS is > 100 µM; in the experiment on RPMI-8226 leukemia, 81.1 µM; in the experiment on A549 NSCLC, > 100 µM; in the experiment on T-47D breast, 48.4 µM; with ACHN renal, > 100 µM.
On to `c1ccc2c(c1)Nc1ccccc1[P+]21c2ccccc2Nc2ccccc21`, for which the TGI is > 32.5 µM with OVCAR-4 ovarian; 0.83 µM in the experiment on NCI-H23 lung; 2.87 µM with 786-0 renal; 0.332 µM in the experiment on SNB-75 CNS; 5.39 µM with OVCAR-8 ovarian; 0.31 µM in the experiment with SK-MEL-5 melanoma. Further, the TGI is 2.04 µM with OVCAR-5 ovarian; 1.36 µM with HS 578T breast; 24.5 µM in the experiment with HCT-15 colon; 0.728 µM in the experiment on NCI-H522 lung; 5.16 µM in the experiment on SF-295 CNS; 3.29 µM in the experiment on A549 NSCLC. Also, the TGI in the experiment on T-47D breast was 1.91 µM; in the experiment on ACHN renal it was 9.29 µM.
